These results are taken from patent publication US9481673B2, “6-alkynyl-pyridine derivatives” (Boehringer Ingelheim International GmbH, priority 2014, dated 2016).

One series concerns the target P450 3A4 (Homo sapiens (Human), UniProt P08684). The series can be described thus: Cytochrome P450 isoenzyme inhibition assay, hydroxylation of Midazolam. The series is classed as in vitro ADME.
The nature of series [1]: Solubility measurement (DMSO solution precipitation method). The class given is physicochemical. The note with it: aqueous buffer, kinetic from dmso stock; (S)-isomers; McIlvaine buffer pH 6.8, 24 h shaking at ambient temperature; read-out: Sol pH 6.8.
The target in a further series is cIAP1 BIR3 (Homo sapiens (Human), UniProt Q13490). As to the kind of experiment: cIAP1 BIR3 binding assay (DELFIA), BIR3-SMAC peptide interaction. The note with it: (S)-isomers; BIR3 domain 10 nM, SMAC peptide 10 nM; read-out: cIAP1 BIR-3 IC50.
In another series the target is P450 2C19 (Homo sapiens (Human), UniProt P33261). The series can be described thus: Cytochrome P450 isoenzyme inhibition assay, hydroxylation of Mephenytoin. The series is classed as in vitro ADME.
A further series has as its target P450 2C9 (Homo sapiens (Human), UniProt P11712). As to the kind of experiment: Cytochrome P450 isoenzyme inhibition assay, hydroxylation of Diclofenac. The series is classed as in vitro ADME.
A further series has as its target P450 2C8 (Homo sapiens (Human), UniProt P10632). As to the kind of experiment: Cytochrome P450 isoenzyme inhibition assay, deethylation of Amodiaquine. The series is classed as in vitro ADME.
The target of a further series is P450 2D6 (Homo sapiens (Human), UniProt P10635). The series can be described thus: Cytochrome P450 isoenzyme inhibition assay, demethylation of Dextromethorphan. The class given is in vitro ADME. The note with it: measured examples from WO 2013/127729 (Table 1).
[2] abbreviates: (S)-isomers, human liver microsomes, 37° C.
Where [3] appears, read: measured examples from WO 2013/127729 (Table 1).

In brackets after ≈: the same amount, converted by molar mass. Where only a bound is given, the exact number is not on record here.

As for `CN[C@@H](C)C(=O)Nc1ccc(-c2c(-c3cccnc3OC)nc3cc(C)ccn23)c(C#Cc2ccc3c(C)nccc3c2)n1` [(S)-1, (2S)-N-{5-[2-(2-methoxypyridin-3-yl)-7-methylimidazo[1,2-a]pyridin-3-yl]-6-[2-(1-methylisoquinolin-6-yl)ethynyl]pyridin-2-yl}-2-(methyl-amino)propanamide], the IC50 on P450 3A4 (setting [2]) is more than 50 µM; on cIAP1 BIR3, 0.001 µM; at P450 2C19 (setting [2]), more than 50 µM; at P450 2C9 (setting [2]), 38 µM; on P450 2C8 (setting [2]) it was 11 µM. In series [1], the solubility kinetic at 24 h was determined as 35 µg/mL (≈ 60.2 µM).

`CN[C@@H](C)C(=O)Nc1ccc(-c2c(-c3cnn(C)c3)nc3cc(C)ccn23)c(C#Cc2ccc3c(C)nccc3c2)n1` [(S)-3, (2S)-N-{5-[7-methyl-2-(1-methyl-1H-pyrazol-4-yl)-imidazo[1,2-a]pyridin-3-yl]-6-[2-(1-methyl-isoquinolin-6-yl)-ethynyl]pyridin-2-yl}-2-(methylamino)-propanamide]: the IC50 is more than 50 µM against P450 3A4 (setting [2]); 0.001 µM at cIAP1 BIR3; more than 50 µM at P450 2C19 (setting [2]); more than 50 µM against P450 2C9 (setting [2]); 14 µM against P450 2C8 (setting [2]). Further, in series [1], the solubility kinetic at 24 h amounted to 1 µg/mL (≈ 1.8 µM).

Turning to `CN[C@@H](C)C(=O)Nc1ccc(-c2c(-c3cncn3C)nc3cc(C)ccn23)c(C#Cc2ccc3c(C)nccc3c2)n1` [(S)-4, (2S)-N-{5-[7-methyl-2-(1-methyl-1H-imidazol-5-yl)-imidazo[1,2-a]pyridin-3-yl]-6-[2-(1-methyl-isoquinolin-6-yl)-ethynyl]pyridin-2-yl}-2-(methylamino)-propanamide], the IC50 is more than 50 µM at P450 3A4 (setting [2]); 0.001 µM at cIAP1 BIR3; 36 µM against P450 2C19 (setting [2]); 27 µM on P450 2C9 (setting [2]); 9.8 µM on P450 2C8 (setting [2]). Moreover, the solubility kinetic at 24 h in series [1] was determined as 39 µg/mL (≈ 70.3 µM).

In the case of `CN[C@@H](C)C(=O)Nc1ccc(-c2c(-c3cccnc3C)nc3cc(C)ccn23)c(C#Cc2ccc3c(C)nccc3c2)n1` [(S)-5, (2S)-N-{5-[7-methyl-2-(2-methylpyridin-3-yl)imidazo[1,2-a]-pyridin-3-yl]-6-[2-(1-methylisoquinolin-6-yl)ethynyl]pyridin-2-yl}-2-(methylamino)-propanamide], the IC50 against P450 3A4 (setting [2]) was more than 50 µM; at cIAP1 BIR3 it was 0.002 µM; against P450 2C19 (setting [2]) it was more than 50 µM; against P450 2C9 (setting [2]) it was more than 50 µM; on P450 2C8 (setting [2]), 1.3 µM. Besides, the solubility kinetic at 24 h in series [1] is less than 1 µg/mL.

As to `CN[C@@H](C)C(=O)Nc1ccc(-c2c(-c3ccc(C)nc3)nc3cc(C)ccn23)c(C#Cc2ccc3c(C)nccc3c2)n1` [(S)-6, (2S)-N-{5-[7-methyl-2-(6-methylpyridin-3-yl)imidazo[1,2-a]-pyridin-3-yl]-6-[2-(1-methylisoquinolin-6-yl)ethynyl]pyridin-2-yl}-2-(methylamino)-propanamide], the IC50 at P450 3A4 (setting [2]) was more than 50 µM; at cIAP1 BIR3 it was 0.001 µM; against P450 2C19 (setting [2]) it was more than 50 µM; at P450 2C9 (setting [2]) it was more than 50 µM; against P450 2C8 (setting [2]), 25 µM. Moreover, in series [1], the solubility kinetic at 24 h was determined as 1 µg/mL (≈ 1.77 µM).

In the case of `CN[C@@H](C)C(=O)Nc1ccc(-c2c(-c3cnc(C)nc3)nc3cc(C)ccn23)c(C#Cc2ccc3c(C)nccc3c2)n1` [(S)-7, (2S)-N-{5-[7-methyl-2-(2-methylpyrimidin-5-yl)imidazo[1,2-a]-pyridin-3-yl]-6-[2-(1-methylisoquinolin-6-yl)ethynyl]pyridin-2-yl}-2-(methylamino)-propanamide], the IC50 against P450 3A4 (setting [2]) was more than 50 µM; on cIAP1 BIR3 it was 0.001 µM; on P450 2C19 (setting [2]), more than 50 µM; against P450 2C9 (setting [2]), more than 50 µM; at P450 2C8 (setting [2]), more than 50 µM. For the same molecule, in series [1], the solubility kinetic at 24 h was less than 1 µg/mL.

For `CN[C@@H](C)C(=O)Nc1ccc(-c2c(-c3ccnc(OC)c3)nc3cc(C)ccn23)c(C#Cc2ccc3c(C)nccc3c2)n1` [(S)-8, (2S)-N-{5-[2-(2-methoxypyridin-4-yl)-7-methylimidazo[1,2-a]pyridin-3-yl]-6-[2-(1-methylisoquinolin-6-yl)ethynyl]pyridin-2-yl}-2-(methyl-amino)propanamide], the IC50 on P450 3A4 (setting [2]) was more than 50 µM; at cIAP1 BIR3, 0.001 µM; on P450 2C19 (setting [2]) it was 38 µM; against P450 2C9 (setting [2]) it was more than 50 µM; on P450 2C8 (setting [2]), 1.6 µM. For the same molecule, the solubility kinetic at 24 h in series [1] was less than 1 µg/mL.

With `CN[C@@H](C)C(=O)Nc1ccc(-c2c(-c3ccc(OC)nc3)nc3cc(C)ccn23)c(C#Cc2ccc3c(C)nccc3c2)n1` [(S)-9, (2S)-N-{5-[2-(6-methoxypyridin-3-yl)-7-methylimidazo[1,2-a]pyridin-3-yl]-6-[2-(1-methylisoquinolin-6-yl)ethynyl]pyridin-2-yl}-2-(methyl-amino)propanamide], the IC50 is more than 50 µM against P450 3A4 (setting [2]); 0.001 µM at cIAP1 BIR3; more than 50 µM against P450 2C19 (setting [2]); more than 50 µM at P450 2C9 (setting [2]); 15 µM on P450 2C8 (setting [2]). The solubility kinetic at 24 h in series [1] came to 2 µg/mL (≈ 3.44 µM).

On to `CN[C@@H](C)C(=O)Nc1ccc(-c2c(-c3cccnc3OC)nc3cc(C)ccn23)c(C#Cc2ccc3c(ccc(=O)n3C)c2)n1` [(S)-10, (2S)-N-{5-[2-(2-methoxypyridin-3-yl)-7-methylimidazo[1,2-a]pyridin-3-yl]-6-[2-(1-methyl-2-oxo-1,2-dihydroquinolin-6-yl)-ethynyl]pyridin-2-yl}-2-(methylamino)-propanamide], for which the concentration for half-maximal inhibition (IC50) was more than 50 µM against P450 3A4 (setting [2]), 0.001 µM at cIAP1 BIR3, more than 50 µM against P450 2C19 (setting [2]) and 9.3 µM against P450 2C8 (setting [2]). The solubility kinetic at 24 h in series [1] came to 35 µg/mL (≈ 58.6 µM).

On to `CN[C@@H](C)C(=O)Nc1ccc(-c2c(-c3ccnc(C)c3)nc3cc(C)ccn23)c(C#Cc2ccccc2)n1` [(S)-11, (2S)-N-{5-[7-methyl-2-(2-methylpyridin-4-yl)imidazo[1,2-a]-pyridin-3-yl]-6-(2-phenylethynyl)pyridin-2-yl}-2-(methyl-amino)propanamide], for which the IC50 on P450 3A4 (setting [2]) is 46 µM; at cIAP1 BIR3 it was 0.001 µM; against P450 2C19 (setting [2]), 14 µM; against P450 2C9 (setting [2]) it was more than 50 µM; on P450 2C8 (setting [2]) it was 15 µM.

With `CN[C@@H](C)C(=O)Nc1ccc(-c2c(-c3cnc(C)nc3)nc3cc(C)ccn23)c(C#Cc2ccc3c(ccc(=O)n3C)c2)n1` [(S)-12, (2S)-N-{5-[7-methyl-2-(2-methylpyrimidin-5-yl)imidazo[1,2-a]-pyridin-3-yl]-6-[2-(1-methyl-2-oxo-1,2-dihydroquinolin-6-yl)-ethynyl]pyridin-2-yl}-2-(methylamino)-propanamide], the half-maximal inhibitory concentration (IC50) at P450 3A4 (setting [2]) is more than 50 µM; at cIAP1 BIR3, 0.002 µM; against P450 2C19 (setting [2]) it was more than 50 µM; on P450 2C9 (setting [2]) it was more than 50 µM; on P450 2C8 (setting [2]), more than 50 µM. For the same molecule, the solubility kinetic at 24 h in series [1] is less than 1 µg/mL.

Turning to `CN[C@@H](C)C(=O)Nc1ccc(-c2c(-c3ccnc(OC)c3)nc3cc(C)ccn23)c(C#Cc2ccc3c(ccc(=O)n3C)c2)n1` [(S)-13, (2S)-N-{5-[2-(2-methoxypyridin-4-yl)-7-methylimidazo[1,2-a]pyridin-3-yl]-6-[2-(1-methyl-2-oxo-1,2-dihydroquinolin-6-yl)-ethynyl]pyridin-2-yl}-2-(methylamino)-propanamide], the IC50 is more than 50 µM on P450 3A4 (setting [2]), 0.001 µM at cIAP1 BIR3, more than 50 µM at P450 2C9 (setting [2]) and 4.5 µM on P450 2C8 (setting [2]). The solubility kinetic at 24 h in series [1] was less than 1 µg/mL.

For `CN[C@@H](C)C(=O)Nc1ccc(-c2c(-c3ccc(OC)nc3)nc3cc(C)ccn23)c(C#Cc2ccc3c(ccc(=O)n3C)c2)n1` [(S)-14, (2S)-N-{5-[2-(6-methoxypyridin-3-yl)-7-methylimidazo[1,2-a]pyridin-3-yl]-6-[2-(1-methyl-2-oxo-1,2-dihydroquinolin-6-yl)-ethynyl]pyridin-2-yl}-2-(methylamino)-propanamide], the IC50 was more than 50 µM on P450 3A4 (setting [2]); 0.001 µM at cIAP1 BIR3; more than 50 µM against P450 2C19 (setting [2]); more than 50 µM against P450 2C9 (setting [2]); more than 50 µM at P450 2C8 (setting [2]). Further, the solubility kinetic at 24 h in series [1] is less than 1 µg/mL.

Take `CN[C@@H](C)C(=O)Nc1ccc(-c2c(-c3cccnc3OC)nc3cc(Cl)ccn23)c(C#Cc2ccc3c(C)nccc3c2)n1` [(S)-15, (2S)-N-{5-[7-chloro-2-(2-methoxypyridin-3-yl)imidazo[1,2-a]-pyridin-3-yl]-6-[2-(1-methylisoquinolin-6-yl)ethynyl]pyridin-2-yl}-2-(methylamino)-propanamide]: the IC50 was more than 50 µM against P450 3A4 (setting [2]); 0.002 µM at cIAP1 BIR3; 32 µM at P450 2C19 (setting [2]); 19 µM against P450 2C9 (setting [2]); 2.2 µM on P450 2C8 (setting [2]). Moreover, the solubility kinetic at 24 h in series [1] turned out to be 20 µg/mL (≈ 33.2 µM).

For the molecule `CN[C@@H](C)C(=O)Nc1ccc(-c2c(-c3cccnc3OC)nc3ccccn23)c(C#Cc2ccc3c(C)nccc3c2)n1` [(S)-16, (2S)-N-{5-[2-(2-methoxypyridin-3-yl)imidazo[1,2-a]-pyridin-3-yl]-6-[2-(1-methylisoquinolin-6-yl)ethynyl]pyridin-2-yl}-2-(methylamino)-propanamide], the IC50 against P450 3A4 (setting [2]) is more than 50 µM; on P450 2C19 (setting [2]), more than 50 µM; on P450 2C9 (setting [2]), 21 µM; against P450 2C8 (setting [2]) it was 3.4 µM. The solubility kinetic at 24 h in series [1] was 17 µg/mL (≈ 29.9 µM).

Turning to `CNC(C)C(=O)Nc1ccc(-c2c(-c3ccncc3)nc3cc(C)ccn23)c(C#Cc2ccc3nc(C)ccc3c2)n1` (stereo not shown) [Ex 64, reference compound], the IC50 at P450 3A4 (setting [3]) came to 2.1 µM; on P450 2C19 (setting [3]) it was 4.3 µM; against P450 2C9 (setting [3]) it was 0.4 µM; against P450 2C8 (setting [3]), 0.5 µM; at P450 2D6 it was 5.2 µM.

The IC50 is the concentration at which inhibition is half-maximal.
